Experimental data reported in patent US8722868B2, “Glycosyltransferase, novel glycosyltransferase gene, and novel sugar donor compound” (National University Corporation Tokyo University of …, priority 2009, dated 2014).

Tests used:
[1] = target: T1, enzyme purified from pink petals of a carnation (variety: "Beam Cherry") (glycosyltransferase) (Dianthus caryophyllus, UniProt E3W9M2); test: Relative activity of glycosyltransferase purified from carnation on each sugar donor (HPLC); type: biochemical; conditions: purified enzyme 135 ng, cyanidin 3-glucoside 200 μM, sugar donor 500 μM, citric acid buffer pH 5.6, 30° C., 15 minutes; HPLC area of cyanidin 3,5-O-β-diglucoside
T1 construct: the enzyme comprising 502 amino acid residues was translated, followed by amino acid removal via processing; from tissue; host or cells: petals of carnation, variety Beam Cherry
T1 sequence (E3W9M2 31-502): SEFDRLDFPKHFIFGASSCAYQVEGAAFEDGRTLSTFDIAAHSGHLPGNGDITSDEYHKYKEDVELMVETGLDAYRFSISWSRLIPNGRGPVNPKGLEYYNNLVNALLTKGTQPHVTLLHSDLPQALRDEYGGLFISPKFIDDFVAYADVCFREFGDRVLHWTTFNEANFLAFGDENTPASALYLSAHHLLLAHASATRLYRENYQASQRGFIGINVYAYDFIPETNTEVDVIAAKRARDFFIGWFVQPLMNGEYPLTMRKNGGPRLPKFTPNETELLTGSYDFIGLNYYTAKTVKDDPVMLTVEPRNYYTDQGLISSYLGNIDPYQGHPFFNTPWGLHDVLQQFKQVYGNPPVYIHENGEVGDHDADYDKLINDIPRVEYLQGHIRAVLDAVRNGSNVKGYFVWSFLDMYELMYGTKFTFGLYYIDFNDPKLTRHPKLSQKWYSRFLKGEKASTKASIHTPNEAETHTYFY
Procedure: An enzyme reaction was carried out at 30° C. for 15 minutes using an enzyme (135 ng) purified from pink petals of a carnation (variety: “Beam Cherry”) by the method described in Example 2 ((1) and (2)), cyanidin 3-glucoside (200 μM), and a sugar donor (1-O-β-D-vanillyl glucose or any of 1-O-β-D-p-coumaryl glucose, 1-O-β-D-caffeyl glucose, 1-O-β-D-feruloyl glucose, and 1-O-β-D-sinapoyl glucose that had been enzymatically synthesized according to the method described in Matsuba Y et al., Plant Biotechnology vol. 25, No. 4 (2008) pp. 369-375) (500 μM) in a reaction solution adjusted to 30 μl with the addition of a citric acid buffer (pH 5.6). A 20% phosphoric acid aqueous solution was added to the reaction liquid so as to result in a final phosphoric acid concentration of 1%. Thus, the reaction was terminated, followed by centrifugation. The resulting supernatant was subjected to separation using a HPLC column (Chromolith SpeedROD, 4.6×50 mm, Merck), eluent A (a 1.5% phosphoric acid aqueous solution), and eluent B (a 90% methanol aqueous solution) with a linear gradient of 18% to 28% liquid B (flow rate: 3.0 ml/min, 520 nm) (5 minutes), followed by analysis. The relative activity of the enzyme on each sugar donor was determined by calculating the area of the reaction product (cyanidin 3,5-O-β-diglucoside) on an HPLC chromatogram at a wavelength of 505 nm.

[2] = target: T2, glycosyltransferase in crude enzyme liquid from pink carnation petals (Dianthus caryophyllus, UniProt E3W9M2); test: Detection of glycosyl transfer reaction with carnation petal crude enzyme liquid (HPLC); type: biochemical; conditions: pH 5.6, 30° C.
T2 construct: Thus, a crude enzyme liquid was obtained; from tissue; host or cells: pink petals of carnation, variety Beam Cherry (ammonium sulfate precipitate, desalted)
T2 sequence (E3W9M2 31-502): T1 sequence (E3W9M2 31-502)
Procedure: Pink petals of a carnation (variety: “Beam Cherry”) were ground into a powder in liquid nitrogen using a mortar and a pestle. The obtained powder was added in a stepwise manner to a 50 mM potassium phosphate buffer (pH 7.2) and dissolved therein via stirring to prevent freezing. Then, an insoluble fraction was removed by centrifugation. A saturate ammonium sulfate solution was added to the obtained supernatant so as to result in a concentration of 80%. The mixture was left on ice for 5 minutes. The precipitated protein was collected by centrifugation. A 10 mM potassium phosphate buffer was added thereto for complete dissolution. The obtained solution was applied to a Sephadex G-25 gelfiltration support (GE Healthcare) for desalting. Thus, a crude enzyme liquid was obtained. […]
Glycosyltransferase activity was examined using a crude enzyme extracted from pink petals of a carnation (variety: “Beam Cherry”) or petals of a delphinium (variety: “marine blue”) in the manner described in Example 1. […] Then, the supernatant was analyzed by HPLC. […]

SMILES | Relative activity of an enzyme on a sugar donor (when synthetic 1-O-β-vanillyl glucose is set as 100) [1] | Function as sugar donor (generation of cyanidin 3,5-O-β-diglucoside from cyanidin 3-glucoside) ([2]; carnation crude enzyme liquid, 40 minutes) | Recognition as sugar donor by carnation glycosylation enzyme ([2]; carnation crude enzyme, cyanidin 3-O-β-glucoside 200 μM, sugar donor 1 mM, 15 minutes)
COc1cc(C(=O)OC2OC(CO)C(O)C(O)C2O)ccc1O (stereo not drawn) | 100 | functions as a sugar donor | 
O=C(OC1OC(CO)C(O)C(O)C1O)c1ccc(O)cc1 (stereo not drawn) [1-O-β-p-hydroxybenzoyl glucose] |  |  | recognize 1-O-β-p-hydroxybenzoyl glucose as a sugar donor
